For 82 compounds, viability results are on record in PMC12040169 (PLOS Biology, 2025).

A short description of this data set: in vitro. To be noted: human, hela cells, % viability.

The viability is a read-out of living cells in per cent, often relative to untreated cells.

Each structure is given as a SMILES string.

In the case of `C[S+]([O-])CCNC(=O)c1cc(-c2ccc(F)cc2)no1` (stereo not shown) [CBK283251], the viability at 28.5 h, 10 µM is 89.6%.
Consider `Cc1ccc(OCCNC(=O)C(C)Cn2cccn2)cc1` (stereo not shown) [CBK283252], for which the viability at 28.5 h, 10 µM was determined as 111%.
For the compound `Cc1cc(C)c2[nH]c(C(=O)NCc3c(C)n[nH]c3C)c(C)c2c1` [CBK283254], the viability at 28.5 h, 10 µM came out at 87.4%.
The figure for `FC(F)(F)c1[nH]c2ncccc2c1CN1CCSCC1` [CBK283257] is 87.7%; for `COc1ccccc1CCCNC(=O)c1ccc2nc(C)[nH]c2c1` [CBK283258] it is 84.7%; for `Cc1nc2ccc(C(=O)NC(c3ccccc3)c3cccnc3)cc2[nH]1` (stereo not shown) [CBK283259] it is 103%.
The figure for `CC(C)(C)C(=O)NCCN1CCC(O)(c2ccc(F)cc2)CC1` [CBK283262] is 92%; for `COc1cccc2c1cc(C(=O)NC1CCCN(C)C1)n2C` (stereo not shown) [CBK283266] it is 90.2%; for `COc1cccc2c1cc(C(=O)NCCn1ccnc1C)n2C` [CBK283267] it is 101%.
For `CC1(C)CC(N(Cc2ccncc2)Cc2ccoc2)CC(C)(C)N1` [CBK283269] the value was 98.1%; for `Cc1c(C(=O)N(C)Cc2cccn2C)[nH]c2ccccc12` [CBK283270], 94.6%.
Consider `Cc1ccc(CN(Cc2cncn2C)CC2CCCO2)o1` (stereo not shown) [CBK283272], for which the viability at 28.5 h, 10 µM came to 93.2%.
For `Cc1ncc(C(=O)NC2(c3ccccc3F)CCCC2)c(C)n1` [CBK283274] the value was 84.5%.
For `CCc1nc2cc(NC(=O)c3cc(C4CC4)nn3C)ccc2n1C` [CBK283275] the value was 85.8%; for `Cc1ccc(-c2cc(C(=O)NC3CN4CCC3CC4)[nH]n2)o1` (stereo not shown) [CBK283276], 104%; for `O=C(NCCn1nc2c(cc1=O)CCCCC2)c1cccs1` [CBK283277], 100%.
The figure for `O=C(NCCn1nc2c(cc1=O)CCCCC2)c1ccccc1` [CBK283278] is 85.7%; for `O=C(NCCn1nc2c(cc1=O)CCCCC2)c1ccc(F)cc1` [CBK283279] it is 93.3%.
Turning to `Cc1nc2ccc(C(=O)NCCN3CCc4ccccc43)cc2[nH]1` [CBK283280], the viability at 28.5 h, 10 µM is 94.2%.
The figure for `COc1cccc2c1cc(C(=O)NCCCc1ccccn1)n2C` [CBK283283] is 83.7%; for `CC1CC1C(=O)NCCN1CCC(O)(c2cccc(F)c2)CC1` (stereo not shown) [CBK283286] it is 84.4%.
For the compound `O=C(NCCCc1ccccn1)c1cnn(-c2ccc(F)cc2)c1` [CBK283287], the viability at 28.5 h, 10 µM came out at 87.6%.
The figure for `O=C(NCCCC1CCOC1)c1cnn(-c2ccc(F)cc2)c1` (stereo not shown) [CBK283288] is 92.5%; for `COc1ccccc1CC(C)NC(=O)c1cc(C2CC2)nn1C` (stereo not shown) [CBK283290] it is 83.8%.
For `Cc1ccc(CN(Cc2cnc(C)n2C)CC2CCCO2)o1` (stereo not shown) [CBK283291] the value was 100%.
The figure for `CC(C)N1CCC(CNC(=O)c2cc(C3CCCCC3)no2)CC1` [CBK283293] is 98.5%; for `CC(C)N1CCCC(CNC(=O)c2cc(C3CCCCC3)no2)C1` (stereo not shown) [CBK283294] it is 97.2%; for `Cc1nccn1CCNC(=O)c1cc(C2CCCCC2)no1` [CBK283295] it is 89.6%.
On to `CCCN1CCC(CNC(=O)c2cc(C3CCCCC3)no2)CC1` [CBK283297], for which the viability at 28.5 h, 10 µM stood at 98.2%.
For `Cc1cccc(C2(O)CCN(C(=O)c3ccc4nc(C)[nH]c4c3)CC2)c1` [CBK283299] the value was 102%; for `Cc1nc2ccc(C(=O)N3CCC(O)(c4ccccc4C)CC3)cc2[nH]1` [CBK283300], 95.8%; for `Cc1nc2ccc(C(=O)NCCCN3Cc4ccccc4C3)cc2[nH]1` [CBK283301], 90.3%.
In the case of `Cc1ccc(C2(CN3CCN(Cc4ncc[nH]4)CC3)CC2)cc1` [CBK283306], the viability at 28.5 h, 10 µM turned out to be 95.9%.
The figure for `Cc1ccc(C2(CN3CCN(Cc4cncn4C)CC3)CC2)cc1` [CBK283308] is 107%; for `Cc1ccc(C(O)CN2CCC(O)(c3ccc(F)cc3)CC2)cc1` (stereo not shown) [CBK283309] it is 94.5%.
The figure for `Cc1ccc(C(O)CN2CCC(O)(c3ccccc3F)CC2)cc1` (stereo not shown) [CBK283310] is 93.8%; for `OC(CN1CCC(O)(c2ccc(F)cc2)CC1)c1ccc(Cl)cc1` (stereo not shown) [CBK283311] it is 89.6%; for `OC(CN1CCC(O)(c2ccccc2F)CC1)c1ccc(Cl)cc1` (stereo not shown) [CBK283312] it is 87%.
The figure for `Cc1[nH]c2cc(C(=O)NCCn3nccc3C)ccc2c1C` [CBK283313] is 92.8%.
Turning to `CCc1c(C(=O)NCCn2ccnc2C)[nH]c2ccc(F)cc12` [CBK283314], the viability at 28.5 h, 10 µM turned out to be 92.9%.
In the case of `Cc1c(C(=O)NCCCCn2ccnc2)oc2c(C)cccc12` [CBK283315], the viability at 28.5 h, 10 µM amounted to 99.9%.
As for `CCCN(CC1CCCO1)C(=O)c1cnn(-c2ccc(F)cc2)c1` (stereo not shown) [CBK283317], the viability at 28.5 h, 10 µM amounted to 89.7%.
For `CCOC(=O)Cn1c(-c2ccc(OC)cc2)cc2cccnc21` [CBK283320] the value was 84.2%; for `CC(=O)NCCN1CCC(O)(c2ccc(C)cc2)CC1` [CBK283321], 87.6%; for `Cc1ccc(C2(O)CCN(CCNC(=O)c3cccs3)CC2)cc1` [CBK283322], 87.8%.
For `Cc1ccc(-c2cc(C(=O)N(C)Cc3cccn3C)[nH]n2)o1` [CBK283324] the value was 100%; for `CC(=O)NC1CCN(CC2(c3ccc(F)cc3)CCCC2)CC1` [CBK283327], 89%.
The figure for `NC[C@H]1CC[C@H](C(=O)N2CCC(c3ccncc3)CC2)CC1` [CBK283332] is 110%; for `CCOC(=O)C(C)n1nc(C)n2c(cc3sccc32)c1=O` (stereo not shown) [CBK283333] it is 67%.
As for `O=C1NC2(CCc3ccccc31)CCN(C(=O)c1ccncc1)C2` (stereo not shown) [CBK283336], the viability at 28.5 h, 10 µM was determined as 90.9%.
The figure for `O=C1NC2(CCc3ccccc31)CCN(C(=O)c1ccccn1)C2` (stereo not shown) [CBK283337] is 96%; for `Cc1ncccc1C(=O)N1CCC2(CCc3ccccc3C(=O)N2)C1` (stereo not shown) [CBK283338] it is 108%; for `O=C1CCCC[C@]2(CN(Cc3ccccc3)C[C@H]2c2ccccn2)N1` [CBK283340] it is 82.6%.
`Cc1cccc([C@@H]2CN(Cc3ccccc3)C[C@]23CCCCC(=O)N3)n1` [CBK283341]: the viability at 28.5 h, 10 µM was 97.1%.
For `O=C1CCCC[C@]2(CN(Cc3ccccc3)C[C@H]2c2cccnc2)N1` [CBK283342] the value was 106%; for `COc1ccc2c(c1)C(=O)NC1(CC2)CCN(Cc2ccccc2)C1` (stereo not shown) [CBK283343], 95.2%.
For `Cc1ccc(CS(=O)(=O)N2CCC3(CC2)CNC(=O)C3)cc1` [CBK283344], the viability at 28.5 h, 10 µM worked out at 88.5%.
The figure for `O=C(C1CCCCC1)N1CC(n2nc(-c3cccs3)ccc2=O)C1` [CBK283346] is 99.2%.
As for `O=C1CCC[C@]2(CN(Cc3ccccc3)C[C@H]2c2cccnc2)N1` [CBK283349], the viability at 28.5 h, 10 µM amounted to 96.1%.
The figure for `O=C1CC2(CCN(S(=O)(=O)c3ccc(F)cc3)CC2)CN1` [CBK283353] is 93.9%.
For `Cc1cc(F)ccc1S(=O)(=O)N1CCC2(CC1)CNC(=O)C2` [CBK283354] the value was 104%; for `Fc1ccc(CN2CCC(c3nnc4n3CCCCC4)CC2)cc1F` [CBK283356], 86.3%.
The figure for `O=C1CCC[C@]2(CN(C(=O)C3CC3)C[C@H]2c2ccccc2F)N1` [CBK283357] is 106%; for `COCCC(=O)N1C[C@@H](c2ccccc2F)[C@@]2(CCCC(=O)N2)C1` [CBK283360] it is 90.4%; for `CCCC(=O)NC[C@H]1CC[C@H](c2nnc(-c3ccsc3)o2)CC1` [CBK283362] it is 98.9%.
On to `O=C1CCC[C@]2(CN(C(=O)C3CC3)C[C@H]2c2ccc(F)c(F)c2)N1` [CBK283364], for which the viability at 28.5 h, 10 µM was 111%.
For `O=C(C1CCC1)N1CCCC1c1nnc(-c2ccsc2)o1` (stereo not shown) [CBK283365] the value was 101%; for `CC(=O)N1C[C@H](c2cccc(C)c2)[C@H]2CN(C3CCCC3)CC[C@H]21` [CBK283369], 88.7%.
For `O=C(c1ccccc1)N1CCC(c2nnc(-c3ccsc3)o2)CC1` [CBK283371] the value was 88.5%; for `CC(=O)N1C[C@@H](c2cccc(C)c2)[C@@H]2CN(CC3CC3)CC[C@@H]21` [CBK283372], 103%.
For `COCc1ccc(C(=O)N2CCC(c3cc4ncccc4[nH]3)CC2)o1` [CBK283373] the value was 102%; for `O=C(Cc1cccc(F)c1)N1CCC(c2cc3ncccc3[nH]2)CC1` [CBK283374], 100%.
Turning to `CCCC(=O)N1CCC(c2nnc(-c3ccsc3)o2)CC1` [CBK283377], the viability at 28.5 h, 10 µM amounted to 85.5%.
For `CC(C)(C)C(=O)N1CCC(c2nnc(-c3ccsc3)o2)CC1` [CBK283378] the value was 89.5%; for `O=C(CC1CCCC1)N1CCC(c2nnc(-c3ccsc3)o2)CC1` [CBK283381], 106%; for `Cc1ccc(C2=CCN(CC(=O)Nc3ncc(C)s3)CC2)o1` [CBK283383], 90%.
For `CC(C)NC(=O)N[C@H]1CC[C@]2(CC1)CC(=O)c1ccccc1O2` [CBK283389] the value was 111%; for `O=C(c1ccccc1F)N1CCC(c2cc3ncccc3[nH]2)CC1` [CBK283391], 86.5%; for `O=C(c1cc(C2CCCN(Cc3ccccc3)C2)no1)N1CCCC1` (stereo not shown) [CBK283395], 89.7%.
With `Cc1nc(C)c(C(=O)N2CCC(c3cc4ncccc4[nH]3)CC2)s1` [CBK283396], the viability at 28.5 h, 10 µM came to 101%.
Take `O=S(=O)(c1ccccc1)N1CCC(c2cc3ncccc3[nH]2)CC1` [CBK283397]: the viability at 28.5 h, 10 µM was 104%.
For `Cn1cc2c(n1)[C@H]1CN(C(=O)c3cc(C(F)(F)F)nn3C)C[C@H]1C2` [CBK283400] the value was 93.8%.
